In brackets after ≈: the same amount, converted by molar mass. Starred links: 1 amine or outer side, 2 acyl side, 3 side chain; linkers in the order of their positions; H or OH if unused. Positions of bridges follow the written chain, without caps; N, C: chain ends. Non-standard residues stand in square brackets, D forms with d. Residues, ends and D or L forms follow the SMILES beside them. X1 = N=C(NCCC[C@H](N[*:1])C(=O)[*:2])N[C@@H]1O[C@H](CO)[C@@H](O[C@H]2O[C@H](CO)[C@@H](O[C@H]3O[C@H](CO)[C@@H](O)[C@H](O)[C@H]3O)[C@H](O)[C@H]2O)[C@H](O)[C@H]1O; R8 = C=CCCCCCC[C@@](C)(N)C(=O)O; S5 = C=CCCC[C@](C)(N)C(=O)O
Tests used:
[1] = test system: Klebsiella pneumoniae; test: Antimicrobial activity against Klebsiella pneumoniae ATCC 13883 assessed as growth inhibition measured after 8 hrs incubation by standard broth dilution assay; assay type: functional
[2] = test system: Streptococcus pneumoniae; test: Antimicrobial activity against Streptococcus pneumoniae ATCC 49619 assessed as growth inhibition measured after 8 hrs incubation by standard broth dilution assay; assay type: functional
[3] = test system: Staphylococcus aureus; test: Antimicrobial activity against methicillin-resistant Staphylococcus aureus ATCC 43300 assessed as growth inhibition measured after 8 hrs incubation by standard broth dilution assay; assay type: functional
[4] = Hemolytic activity in BALB/c mouse red blood cells assessed as hemolysis incubated for 1 hrs; assay type: toxicity, cell-based, Erythrocyte; settings: read-out: HD50
[5] = test system: Pseudomonas aeruginosa; test: Antimicrobial activity against Pseudomonas aeruginosa ATCC 27853 assessed as growth inhibition measured after 8 hrs incubation by standard broth dilution assay; assay type: functional

| Structure (SMILES) | MIC [1] [µg/mL] | MIC [2] [µg/mL] | MIC [3] [µg/mL] | HC50 at 1 h [4] [µg/mL] | MIC [5] [µg/mL] |
| --- | --- | --- | --- | --- | --- |
| CC(=O)N[C@@H](CC(C)C)C(=O)N[C@@H](CCCCN)C(=O)N[C@@H](CCCNC(=N)N)C(=O)N[C@H](C(=O)N[C@@H](Cc1c[nH]c2ccccc12)C(=O)N[C@@H](CCCCN)C(=O)N[C@@H](CCCNC(=N)N)C(=O)N[C@H](C(=O)N[C@@H](Cc1ccccc1)C(=O)N[C@@H](CCCCN)C(=O)N[C@@H](CC(C)C)C(=O)N[C@@H](CC(C)C)C(=O)N[C@@H](CCCCN)C(=O)N[C@@]1(C)CCC/C=C\CCC[C@@](C)(C(=O)N[C@@H](CC(C)C)C(=O)N[C@@H](CCCCN)C(=O)N[C@@H](CCCCN)C(=O)N[C@@H](CCCCN)C(=O)N[C@H](C(=O)N[C@@H](CCCNC(=N)N)C(N)=O)C(C)C)NC(=O)[C@H](CCCNC(=N)N)NC(=O)[C@H](Cc2c[nH]c3ccccc23)NC(=O)[C@H](Cc2ccc(O)cc2)NC1=O)C(C)C)C(C)C (Ac-LKRVWKRVFKLLK[S5]YWR[S5]LKKKVR-NH2; staple (Z) 14-18) | 10.1 (≈ 3.09 µM) | 4.7 (≈ 1.44 µM) | 4.9 (≈ 1.5 µM) | 13.1 | 5 (≈ 1.53 µM) |
| CC(=O)N[C@@H](CC(C)C)C(=O)N[C@@H](CCCCN)C(=O)N[C@@H](CCCNC(=N)N)C(=O)N[C@H](C(=O)N[C@@H](Cc1c[nH]c2ccccc12)C(=O)N[C@@H](CCCCN)C(=O)N[C@@H](CCCNC(=N)N)C(=O)N[C@H](C(=O)N[C@@H](Cc1ccccc1)C(=O)N[C@@H](CCCCN)C(=O)N[C@@H](CC(C)C)C(=O)N[C@@H](CC(C)C)C(=O)N[C@@H](CCCCN)C(=O)N[C@@]1(C)CCC/C=C\CCC[C@@](C)(C(=O)N[C@@H](CC(C)C)C(=O)N[C@@H](CCCCN)C(=O)N[C@@H](CCCCN)C(=O)N2CCC[C@H]2C(=O)N[C@@H](CCCCN)C(=O)N[C@@H](CCCNC(=N)N)C(N)=O)NC(=O)[C@H](CCCNC(=N)N)NC(=O)[C@H](Cc2c[nH]c3ccccc23)NC(=O)[C@H](Cc2ccc(O)cc2)NC1=O)C(C)C)C(C)C (Ac-LKRVWKRVFKLLK[S5]YWR[S5]LKKPKR-NH2; staple (Z) 14-18) | 19.2 (≈ 5.89 µM) | 4.7 (≈ 1.44 µM) | 4.9 (≈ 1.5 µM) | 8.9 | 5 (≈ 1.53 µM) |
| CC(=O)N[C@@H](CC(C)C)C(=O)N[C@@H](CCCCN)C(=O)N[C@@H](CCCNC(=N)N)C(=O)N[C@H](C(=O)N[C@@H](CCCCN)C(=O)N[C@@H](CCCCN)C(=O)N[C@@H](CCCNC(=N)N)C(=O)N[C@H](C(=O)N[C@@H](Cc1ccccc1)C(=O)N[C@@H](CCCCN)C(=O)N[C@@H](CC(C)C)C(=O)N[C@@H](CC(C)C)C(=O)N[C@@H](CCCCN)C(=O)N[C@@]1(C)CCC/C=C\CCC[C@@](C)(C(=O)N[C@@H](CC(C)C)C(=O)N[C@@H](CCCCN)C(=O)N[C@@H](CCCCN)C(=O)N2CCC[C@H]2C(=O)N[C@H](C(=O)N[C@@H](CCCNC(=N)N)C(N)=O)C(C)C)NC(=O)[C@H](CCCNC(=N)N)NC(=O)[C@H](Cc2c[nH]c3ccccc23)NC(=O)[C@H](Cc2ccc(O)cc2)NC1=O)C(C)C)C(C)C (Ac-LKRVKKRVFKLLK[S5]YWR[S5]LKKPVR-NH2; staple (Z) 14-18) | 10.1 (≈ 3.18 µM) | 4.7 (≈ 1.48 µM) | 19 (≈ 5.98 µM) | 15.3 | 5 (≈ 1.57 µM) |
| CC(=O)N[C@@H](CCCCN)C(=O)N[C@@H](CCCCN)C(=O)N[C@@H](CCCNC(=N)N)C(=O)N[C@H](C(=O)N[C@@H](CCCCN)C(=O)N[C@@H](CCCCN)C(=O)N[C@@H](CCCNC(=N)N)C(=O)N[C@@]1(C)CCC/C=C\CCC[C@@](C)(C(=O)N[C@@H](CCCCN)C(=O)N[C@@]2(C)CCC/C=C\CCC[C@@](C)(C(=O)N[C@@H](CC(C)C)C(=O)N[C@@H](CCCCN)C(=O)N[C@@H](CCCCN)C(=O)N3CCC[C@H]3C(=O)N[C@H](C(=O)N[C@@H](CCCNC(=N)N[C@@H]3O[C@H](CO)[C@@H](O[C@H]4O[C@H](CO)[C@@H](O[C@H]5O[C@H](CO)[C@@H](O)[C@H](O)[C@H]5O)[C@H](O)[C@H]4O)[C@H](O)[C@H]3O)C(N)=O)C(C)C)NC(=O)[C@H](CCCNC(=N)N)NC(=O)[C@H](Cc3c[nH]c4ccccc34)NC(=O)[C@H](Cc3ccc(O)cc3)NC2=O)NC(=O)[C@H](CC(C)C)NC(=O)[C@H](CCCCN)NC(=O)[C@H](Cc2ccccc2)NC1=O)C(C)C (Ac-KKRVKKR[S5]FKL[S5]K[S5]YWR[S5]LKKPV[X1]-NH2; staple (Z) 8-12, 14-18) | 1.1 (≈ 0.296 µM) | 1.1 (≈ 0.296 µM) | 1.1 (≈ 0.296 µM) | 80.8 | 2.6 (≈ 0.7 µM) |
| CC(=O)N[C@@H](CC(C)C)C(=O)N[C@@H](CCCCN)C(=O)N[C@@H](CCCNC(=N)N)C(=O)N[C@H](C(=O)N[C@@H](Cc1c[nH]c2ccccc12)C(=O)N[C@@H](CCCCN)C(=O)N[C@@H](CCCNC(=N)N)C(=O)N[C@H](C(=O)N[C@@H](Cc1ccccc1)C(=O)N[C@@H](CCCCN)C(=O)N[C@@H](CC(C)C)C(=O)N[C@@H](CC(C)C)C(=O)N[C@@H](CCCCN)C(=O)N[C@@]1(C)CCC/C=C\CCC[C@@](C)(C(=O)N[C@@H](CC(C)C)C(=O)N[C@@H](CCCCN)C(=O)N[C@@H](CCCCN)C(=O)N2CCC[C@H]2C(=O)N[C@H](C(=O)N[C@@H](CCCNC(=N)N)C(N)=O)C(C)C)NC(=O)[C@H](CCCNC(=N)N)NC(=O)[C@H](Cc2c[nH]c3ccccc23)NC(=O)[C@H](CCCCN)NC1=O)C(C)C)C(C)C (Ac-LKRVWKRVFKLLK[S5]KWR[S5]LKKPVR-NH2; staple (Z) 14-18) | 38 (≈ 11.9 µM) | 2.4 (≈ 0.75 µM) | 10.1 (≈ 3.16 µM) | 53.6 | 5 (≈ 1.56 µM) |
| CC(=O)N[C@@H](CC(C)C)C(=O)N[C@@H](CCCCN)C(=O)N[C@@H](CCCNC(=N)N)C(=O)N[C@H](C(=O)N[C@@H](Cc1c[nH]c2ccccc12)C(=O)N[C@@H](CCCCN)C(=O)N[C@@H](CCCNC(=N)N)C(=O)N[C@@]1(C)CCC/C=C\CCC[C@@](C)(C(=O)N[C@@H](CCCCN)C(=O)N[C@@H](CCCNC(=N)N)C(=O)N[C@@H](Cc2ccc(O)cc2)C(=O)N[C@@H](Cc2c[nH]c3ccccc23)C(=O)N[C@@H](CCCNC(=N)N)C(=O)N[C@@H](CCC(N)=O)C(=O)N[C@@H](CC(C)C)C(=O)N[C@@H](CCCCN)C(=O)N[C@@H](CCCCN)C(=O)N2CCC[C@H]2C(=O)N[C@H](C(=O)N[C@@H](CCCNC(=N)N)C(N)=O)C(C)C)NC(=O)[C@H](CC(C)C)NC(=O)[C@H](CCCCN)NC(=O)[C@H](Cc2ccccc2)NC1=O)C(C)C (Ac-LKRVWKR[S5]FKL[S5]KRYWRQLKKPVR-NH2; staple (Z) 8-12) | 38 (≈ 11.5 µM) | 37.7 (≈ 11.4 µM) | 2.5 (≈ 0.756 µM) | – | 5 (≈ 1.51 µM) |
| CC(=O)N[C@@H](CC(C)C)C(=O)N[C@@H](CCCCN)C(=O)N[C@@H](CCCNC(=N)N)C(=O)N[C@H](C(=O)N[C@@H](Cc1c[nH]c2ccccc12)C(=O)N[C@@H](CCCCN)C(=O)N[C@@H](CCCNC(=N)N)C(=O)N[C@H](C(=O)N[C@@H](Cc1ccccc1)C(=O)N[C@@H](CCCCN)C(=O)N[C@@H](CC(C)C)C(=O)N[C@]1(C)CCCCCC/C=C\CCC[C@@](C)(C(=O)N[C@@H](CCCCN)C(=O)N[C@@H](CCCCN)C(=O)N2CCC[C@H]2C(=O)N[C@H](C(=O)N[C@@H](CCCNC(=N)N)C(N)=O)C(C)C)NC(=O)[C@H](CCC(N)=O)NC(=O)[C@H](CCCNC(=N)N)NC(=O)[C@H](Cc2c[nH]c3ccccc23)NC(=O)[C@H](Cc2ccc(O)cc2)NC(=O)[C@H](CCCNC(=N)N)NC(=O)[C@H](CCCCN)NC1=O)C(C)C)C(C)C (Ac-LKRVWKRVFKL[R8]KRYWRQ[S5]KKPVR-NH2; staple (Z) 12-19) | 38 (≈ 11.4 µM) | 4.7 (≈ 1.41 µM) | 4.9 (≈ 1.47 µM) | – | 2.6 (≈ 0.78 µM) |
